Experimental findings from patent publication US5688950A, “Tricyclic aminoalkylcarboxamides; novel dopamine D3 receptor subtype specific ligands” (Neurogen Corporation, priority 1996, dated 1997) are described below.

In assay [1] the target is T1, D3 receptor (Chlorocebus aethiops, UniProt P52703).
T1 construct: expressed in transfected cells; host or cells: COS cells
Description: D3 receptor binding activity (pellets of COS cells, 3H-YM 09151-2). More on the design: species or system African Green monkey. On the procedure: (§1) Pellets of COS cells containing recombinantly produced D2 or D3 receptors from African Green monkey were used for the assays. The sample is homogenized in 100 volumes (w/vol) of 0.05M Tris HCl buffer at 4° C. and pH 7.4. The sample is then centrifuged at 30,000×g and resuspended and rehomogenized. The sample is then centrifuged as described and the final tissue sample is frozen until use. The tissue is resuspended 1:20 (wt/vol) in 0.05M Tris HCl buffer containing 100 mM NaCl.
(§2) Incubations are carried out at 48° C. and contain 0.4 ml of tissue sample, 0.5 nM ^3 H-YM 09151-2 and the compound of interest in a total incubation of 1.0 ml. Nonspecific binding is defined as that binding found in the presence of 1 mM spiperone; without further additions, nonspecific binding is less than 20% of total binding. The binding characteristics of representative compounds of the invention for D2 and D3 receptor subtypes are shown in Table 1 for rat striatal homogenates.

Assay [2] addresses T2, D2 receptor (Chlorocebus aethiops, UniProt P52702).
T2 construct: expressed in transfected cells; host or cells: COS cells
The assay can be described thus: D2 receptor binding activity (pellets of COS cells, 3H-YM 09151-2). More on the design: species or system African Green monkey. Conditions: 0.5 nM 3H-YM 09151-2, pH 7.4; nonspecific with 1 mM spiperone. How it is done: as §1, §2

[3] abbreviates: 0.5 nM 3H-YM 09151-2, pH 7.4, nonspecific with 1 mM spiperone, read-out: D3 Ki.

Counter-ions that a name gives are not always drawn. Like-named read-outs stand apart in the source and are kept apart here.

T1 sequence (P52703 whole entry): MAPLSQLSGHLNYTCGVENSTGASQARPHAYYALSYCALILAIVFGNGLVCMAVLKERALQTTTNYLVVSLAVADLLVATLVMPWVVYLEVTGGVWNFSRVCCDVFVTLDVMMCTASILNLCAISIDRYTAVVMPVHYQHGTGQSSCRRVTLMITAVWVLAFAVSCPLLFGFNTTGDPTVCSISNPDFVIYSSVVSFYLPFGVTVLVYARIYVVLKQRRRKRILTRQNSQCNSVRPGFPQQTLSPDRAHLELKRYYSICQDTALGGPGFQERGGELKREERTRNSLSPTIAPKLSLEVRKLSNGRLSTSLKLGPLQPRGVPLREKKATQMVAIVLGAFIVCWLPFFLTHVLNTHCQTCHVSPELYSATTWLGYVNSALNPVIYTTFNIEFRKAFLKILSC
T2 sequence (P52702 whole entry): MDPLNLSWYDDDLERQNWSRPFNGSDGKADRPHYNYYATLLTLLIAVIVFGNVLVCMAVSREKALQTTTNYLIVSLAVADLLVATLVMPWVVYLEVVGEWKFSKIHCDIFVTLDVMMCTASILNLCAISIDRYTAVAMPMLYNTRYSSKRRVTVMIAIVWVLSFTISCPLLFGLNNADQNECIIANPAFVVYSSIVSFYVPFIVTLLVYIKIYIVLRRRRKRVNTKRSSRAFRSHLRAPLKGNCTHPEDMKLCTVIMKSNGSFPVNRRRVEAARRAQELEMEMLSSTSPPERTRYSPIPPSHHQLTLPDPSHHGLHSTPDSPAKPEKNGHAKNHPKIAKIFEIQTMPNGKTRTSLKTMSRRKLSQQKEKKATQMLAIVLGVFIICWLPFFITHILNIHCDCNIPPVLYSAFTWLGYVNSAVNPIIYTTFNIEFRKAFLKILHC

`O=C(NCCCCN1CCN2c3ccccc3CCC2C1)c1ccc2c(c1)Cc1ccccc1-2` (stereo not drawn) [Compound 14, N-{4-(2,3,4,4a,5,6-hexahydro-1H-pyrazino[1,2-a]quinolin-2-yl)butyl}-fluorene-2-carboxamide hydrochloride]: the Ki came out at 9 nM in assay [1] (setting [3]) and 198 nM in assay [2].
In the case of `O=C(NCCCCN1CCc2c(ccc3ccccc23)C1)c1cnc2ccccc2c1` [Compound 1, N-{4-(1,2,3,4-tetrahydrobenz[f]isoquinolin-2-yl)butyl}-quinoline-3-carboxamide hydrochloride], the inhibition constant Ki in assay [1] (setting [3]) amounted to 8 nM; in assay [2], 127 nM.
As for “N-{4-(1,2,3,4-tetrahydrobenz[f]isoquinolin-2-yl)butyl}-fluoren-9-one-3-carboxamide hydrochloride [Compound 6]”, the inhibitory constant (Ki) in assay [1] (setting [3]) was 17 nM; in assay [2], 165 nM.
On to `O=C(NCCCCN1CCC2=C(CCc3ccccc32)C1)c1ccc(-c2ccccc2)cc1` [Compound 13, N-{4-(1,2,3,4,5,6-hexahydrobenz[f]isoquinolin-2-yl)butyl}-biphenyl-4-carboxamide hydrochloride], for which the inhibition constant (Ki) came out at 10 nM in assay [1] and 362 nM in assay [2].
As for `O=C(NCCCCN1CCc2c(ccc3ccccc23)C1)c1cnc2ccccc2n1` [Compound 8, N-{4-(1,2,3,4-tetrahydrobenz[f]isoquinolin-2-yl)butyl}-quinoxaline-2-carboxamide hydrochloride], the Ki in assay [1] (setting [3]) came to 12 nM; in assay [2] it was 250 nM.
`O=C(NCCCCN1CCc2c(ccc3ccccc23)C1)c1ccc2sc3ccccc3c2c1` [Compound 7, N-{4-(1,2,3,4-tetrahydrobenz[f]isoquinolin-2-yl)butyl}-dibenzothiophene-2-carboxamide hydrochloride]: the inhibition constant (Ki) in assay [1] (setting [3]) came out at 5 nM; in assay [2] it was 377 nM.
